This test deals with 922993-354-T-J3-PDC complex spheroid viability. Put plainly: Anticancer human tumor 922993-354-T-J3-PDC patient-derived endometrial carcinoma cell line growth inhibition [POLQ]. Conditions: for viability, T/C: stronger effect = lower value. As for the experimental part: Multicellular complex tumor spheroid response to Polymerase (POL) inhibitors (novobiocin, ART-558, RP6685) in combination with a variety of drugs and investigational agents in selected tumor cell lines
The POL inhibitors (novobiocin, ART-558, and RP6685) were evaluated both individually and in combination with standard of care and investigational anticancer small molecules within a complex spheroid model of solid tumors. . Complex spheroids include a stromal component modeled by human endothelial cells (HUVEC) and fibroblasts modeled by human mesenchymal stem cells (MSCs). The concentration ranges selected for each drug and investigational agent were based upon clinically achievable concentrations if the clinical Cmax of the agent was known.
Compounds. The drugs and investigational agents: novobiocin (NSC847541), ART-558 (NSC835418), RP-6685 (NSC848927), peposertib (NSC802822), ceralasertib (NSC780249), elimusertib (NSC800525), camonsertib (NSC841442), AZD-1390 (NSC803789), olaparib (NSC753686), talazoparib (NSC767125), rucaparib (NSC756644), sotorasib (NSC818433), MRTX-1133 (NSC836407), SN-38 (NSC673596), topotecan (NSC609699), epotoside (NSC141540), doxorubicin (NSC123127), gemcitabine (NSC613327), 5-fluorouracil (NSC19893), paclitaxel (NSC125973), vemurafenib (NSC761431), MSA-2 (NSC828583), SN-011 (NSC837082), adavosertib (NSC754352), prexasertib (NSC758257), carboplatin (NSC241240) and oxaliplatin (NSC266046), were obtained from the National Cancer Institute (NCI) Developmental Therapeutics Program Chemical Repository (21). The FDA-approved anticancer drug set is available from the Developmental Therapeutics Program at https://dtp.cancer.gov/organization/dscb/obtaining/. […] The stock solutions were prepared in dimethyl sulfoxide (DMSO, Sigma-Aldrich, St. Louis, MO, cat. D2650), except for the platinum compounds which were prepared in saline (Quality Biological, Gaithersburg, MD, cat. 114-055-101), at 800-fold the tested concentration and stored at -70 degrees C prior to their use. All drugs and investigational agents were tested over a range starting from a high concentration at or near the clinical Cmax and decreasing in half-log increments. If the clinical Cmax for an agent had not been determined, the highest concentration tested was 10 microM, except for SN-38, which was tested at a high concentration of 1 microM.
Cell Culture. All cells were maintained in an incubator at 37 degrees C and 5% CO2 with 95% humidity. The PDC lines were cultured according to standard operating procedures established by the NCI PDMR (https://pdmr.cancer.gov). Table 3 of the manuscript, lists the cell lines along with the number of the three cell types plated to form the mct-spheroids and media for tumor cell growth. After thawing, all PDC lines, except 997537-175-T-J1-PDC and 415267-285-R-J2-PDC, were cultured in Matrigel-coated flasks prepared with a working solution of 1X Ham's F-12 nutrient mix, without supplementation (Thermo Fisher Scientific, cat. 11765054), 100 U/mL penicillin-streptomycin (Thermo Fisher Scientific, cat. 15140122), and 2.5% Matrigel (Corning Inc., Corning, NY, cat. 354248) for the first three passages. The two PDC lines 997537-175-T-J1-PDC and 415267-285-R-J2-PDC were cultured on uncoated flasks. The 857933-349-R-J2-PDC line was cultured in 6C/Colon 1B media containing advanced DMEM/F-12 (Thermo Fisher Scientific, cat. 12634028), 10 mM HEPES (Thermo Fisher Scientific, cat. 15630080), 1X GlutaMAX supplement (Thermo Fisher Scientific, cat. 35050061), 0.1 mg/mL primocin (InvivoGen, San Diego, CA, cat. ant-pm-2), 10% defined fetal bovine serum, heat inactivated (HyClone Laboratories Inc., Logan, UT, cat. SH30070.03HI), 50% L-WRN conditioned media (ATCC, cat. CRL-3276), 1.25 mM N-Acetyl-L-cysteine (Sigma-Aldrich, cat. A9165), 10 mM nicotinamide (Sigma-Aldrich, cat. N0636), 1X B-27 supplement (Thermo Fisher Scientific, cat. 17504044), 1X N-2 supplement (Thermo Fisher Scientific, cat. […]

“And” between values parts separate entries of the source, which are not always exact repeats. Equal values may be shown once.
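Further: spheroids exposed to the agents for one week.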
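Wherever viability, T/C is given: 100% = DMSO vehicle control wells.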

In general, viability, T/C refers to the ratio of treated to control. The IC50 is the point on the concentration scale where inhibition reaches its midpoint. Regarding `C#Cc1c(F)ccc2cc(O)cc(-c3ncc4c(N5CC6CCC(C5)N6)nc(OCC56CCCN5CC(F)C6)nc4c3F)c12` (stereo not drawn), the viability, T/C runs as follows: (compound 0.0316 µM) 108% and 107% and 101%; (compound 0.1 µM) 95.9% and 99.1% and 99.3%; (compound 0.316 µM) 97.7% and 108% and 93.2%; (compound 1 µM) 110% and 99.2% and 95%; (compound 3.16 µM) 96% and 102% and 92.8%; (compound 10 µM) 98.1% and 99.6% and 90.1%. In addition, under “curve of compound”, the IC50 is over 10000 nM.

Turning to `C=CC(=O)N1CCN(c2nc(=O)n(-c3c(C)ccnc3C(C)C)c3nc(-c4c(O)cccc4F)c(F)cc23)C(C)C1` (stereo not drawn), the viability, T/C was 107% and 106% and 97.9% (compound 0.0316 µM); 93.5% and 101% and 94.9% (compound 0.1 µM); 96% and 106% and 92.7% (compound 0.316 µM); 104% (2×) and 107% (compound 1 µM); 105% and 104% and 97.4% (compound 3.16 µM); 98.8% and 106% and 75% (compound 10 µM). For the same compound, under “curve of compound”, the IC50 is over 10000 nM.

For the compound `CC(C)n1c(=O)n(C)c2cnc3cc(F)c(-c4ccc(OCCCN5CCCCC5)nc4)cc3c21`, the viability, T/C reads like this: (compound 0.0316 µM) 109% and 101% and 100%; (compound 0.1 µM) 103% and 94.2% and 94%; (compound 0.316 µM) 107% and 99.9% and 97.4%; (compound 1 µM) 99.4% and 95.3% and 105%; (compound 3.16 µM) 90% and 92.7% and 83.1%; (compound 10 µM) 63.3% and 83% and 68%. Besides, under “curve of compound”, the IC50 is over 10000 nM.

On to `CC1COCCN1c1cc(C2(O)CC3CCC(C2)O3)c2cnn(-c3ccn[nH]3)c2n1` (stereo not drawn), for which the viability, T/C runs as follows: (compound 0.0316 µM) 91% and 98.1% and 100%; (compound 0.1 µM) 90.2% and 88.6% and 96.7%; (compound 0.316 µM) 54.3% and 58.2% and 96.7%; (compound 1 µM) 25.7% and 28.6% and 63.1%; (compound 3.16 µM) 9.69% and 10.5% and 42.5%; (compound 10 µM) 10.9% and 8.97% and 19.9%. For the same compound, the IC50 (curve of compound) is 399 nM and 441 nM and 2040 nM.

On to `CCc1cc2c(N3CCc4c(cc(Cn5ccnc5)cc4-c4cn(C)nc4C(F)(F)F)C3=O)cc(C)nc2c(OC)n1`, for which the viability, T/C (compound 0.0316 µM) is 93.1% and 105% and 99.3%; the viability, T/C (compound 0.1 µM) was 106% and 104% and 101%; the viability, T/C (compound 0.316 µM) is 98% and 103% and 106%; the viability, T/C (compound 1 µM) is 108% and 107% and 106%; the viability, T/C (compound 3.16 µM) was 99.3% and 102% and 104%; the viability, T/C (compound 10 µM) is 71.7% and 94.3% and 102%. The IC50 (curve of compound) was over 10000 nM.

On to `CCc1cc2c(N3CCc4c(cc(Cn5ccnc5)cc4-c4cn(C)nc4C(F)(F)F)C3=O)ccnc2c(OC)n1`, for which the viability, T/C runs as follows: (compound 0.0316 µM) 109% and 106% and 102%; (compound 0.1 µM) 94.3% and 98% and 103%; (compound 0.316 µM) 87.5% and 105% and 107%; (compound 1 µM) 107%; (compound 3.16 µM) 91.8% and 108% and 103%; (compound 10 µM) 80.9% and 97.6% and 101%. For the same compound, the IC50 (curve of compound) was over 10000 nM.

For the compound `COc1cc2cc(C(=O)CCC(=O)O)sc2cc1OC`, the viability, T/C (compound 0.0316 µM) was 106% (2×) and 103%; the viability, T/C (compound 0.1 µM) was 100% and 98.9% and 101%; the viability, T/C (compound 0.316 µM) was 108% and 102% and 98.9%; the viability, T/C (compound 1 µM) is 99.2% and 104% (2×); the viability, T/C (compound 3.16 µM) was 106% and 105% and 116%; the viability, T/C (compound 10 µM) was 85.2% and 83.3% and 64.8%. Moreover, the IC50 (curve of compound) is over 10000 nM.

With `O=C(Nc1ccc(O)c(NS(=O)(=O)c2ccc(F)cc2)c1)c1ccc(-c2ccccc2)cc1`, the viability, T/C by setting is: (compound 0.0316 µM) 108% and 103% and 104%; (compound 0.1 µM) 106% and 103% and 91.7%; (compound 0.316 µM) 104% and 99.2% and 89.1%; (compound 1 µM) 99.6% and 101% and 99.3%; (compound 3.16 µM) 108% and 105% and 96.4%; (compound 10 µM) 112% and 101% and 90.3%. Further, the IC50 (curve of compound) was over 10000 nM.

As to `CC(=O)O[C@H]1C(=O)[C@@]2(C)[C@H]([C@H](OC(=O)c3ccccc3)[C@]3(O)C[C@H](OC(=O)[C@H](O)[C@@H](NC(=O)c4ccccc4)c4ccccc4)C(C)=C1C3(C)C)[C@]1(OC(C)=O)CO[C@@H]1C[C@@H]2O` + COC1C(OC(N)=O)C(O)C(Oc2ccc3c(O)c(NC(=O)c4ccc(O)c(CC=C(C)C)c4)c(=O)oc3c2C)OC1(C)C, the IC50 reads like this: (curve of first compound, second compound 0.0316 µM) 2640 nM; (curve of first compound, second compound 0.1 µM) over 3000 nM; (curve of first compound, second compound 0.316 µM) 2990 nM; (curve of first compound, second compound 1 µM) over 3000 nM; (curve of first compound, second compound 3.16 µM) over 3000 nM; (curve of first compound, second compound 10 µM) 2000 nM. Besides, the viability, T/C is 97% (second compound 0.0316 µM, first compound 0.00949 µM); 96.3% (second compound 0.0316 µM, first compound 0.03 µM); 95.1% (second compound 0.0316 µM, first compound 0.0949 µM); 105% (second compound 0.0316 µM, first compound 0.3 µM); 85.5% (second compound 0.0316 µM, first compound 0.949 µM); 45.6% (second compound 0.0316 µM, first compound 3 µM). The viability, T/C is, setting by setting: (second compound 0.1 µM, first compound 0.00949 µM) 102%; (second compound 0.1 µM, first compound 0.03 µM) 101%; (second compound 0.1 µM, first compound 0.0949 µM) 107%; (second compound 0.1 µM, first compound 0.3 µM) 106%; (second compound 0.1 µM, first compound 0.949 µM) 83.6%; (second compound 0.1 µM, first compound 3 µM) 55.8%. In addition, the viability, T/C (second compound 0.316 µM, first compound 0.00949 µM) was 97.1%; the viability, T/C (second compound 0.316 µM, first compound 0.03 µM) is 118%; the viability, T/C (second compound 0.316 µM, first compound 0.0949 µM) is 104%; the viability, T/C (second compound 0.316 µM, first compound 0.3 µM) is 97.7%; the viability, T/C (second compound 0.316 µM, first compound 0.949 µM) was 80.5%; the viability, T/C (second compound 0.316 µM, first compound 3 µM) was 49.8%. Further, the viability, T/C was 96.9% (second compound 1 µM, first compound 0.00949 µM); 99.4% (second compound 1 µM, first compound 0.03 µM); 104% (second compound 1 µM, first compound 0.0949 µM); 104% (second compound 1 µM, first compound 0.3 µM); 79.9% (second compound 1 µM, first compound 0.949 µM); 53.2% (second compound 1 µM, first compound 3 µM). Also, the viability, T/C runs as follows: (second compound 3.16 µM, first compound 0.00949 µM) 99.2%; (second compound 3.16 µM, first compound 0.03 µM) 92.8%; (second compound 3.16 µM, first compound 0.0949 µM) 101%; (second compound 3.16 µM, first compound 0.3 µM) 99.3%; (second compound 3.16 µM, first compound 0.949 µM) 76.9%; (second compound 3.16 µM, first compound 3 µM) 54.9%. For the same compound, the viability, T/C is 84.7% (second compound 10 µM, first compound 0.00949 µM); 82.2% (second compound 10 µM, first compound 0.03 µM); 94.9% (second compound 10 µM, first compound 0.0949 µM); 68.9% (second compound 10 µM, first compound 0.3 µM); 64% (second compound 10 µM, first compound 0.949 µM); 43.3% (second compound 10 µM, first compound 3 µM).

The values are drawn from PubChem BioAssay AID1963830 (Molecular Pharmacology Branch, DTP, NCI, 2024).
